From ChEMBL document CHEMBL1138984, “Identification of phosphodiesterase-1 and 5 dual inhibitors by a ligand-based virtual screening optimized for lead evolution” (Bioorg Med Chem Lett, 2006)

Legend:
Phosphodiesterase 1 [1] = target: T1, Phosphodiesterase 1 (Homo sapiens, UniProt P54750+Q01064+Q14123); assay: Inhibition of PDE1; assay type: protein assay
[2] = target: T2, cGMP-specific 3',5'-cyclic phosphodiesterase (Homo sapiens, UniProt O76074); assay: Inhibition of PDE5
Phosphodiesterase 1 [3] = target: T1, Phosphodiesterase 1; assay: Inhibition of PDE1 at 10 uM; assay type: protein assay; design: scale not given: the % may be the effect or the level left
[4] = target: T2, cGMP-specific 3',5'-cyclic phosphodiesterase; assay: Inhibition of PDE5 at 10 uM; design: scale not given: the % may be the effect or the level left

| Compound | IC50 (Phosphodiesterase 1 [1]) [µM] | IC50 [2] [µM] | Activity (Phosphodiesterase 1 [3]) [%] | Activity [4] [%] |
| --- | --- | --- | --- | --- |
| Cc1ccc(-c2cc(C(=O)Nc3ccc(S(N)(=O)=O)cc3)c3ccccc3n2)s1 | 2.5 | 6.3 |  |  |
| N#CC1=C(N)OC2=C(C(=O)CCC2)C1c1ccc(OCC(=O)Nc2cccc(C(F)(F)F)c2)cc1 (stereo not drawn) |  |  | 9 | 52 |
| Cc1cc(C(=O)Nc2cccc(C(=O)O)c2)cc(S(=O)(=O)Nc2cccc(C(=O)O)c2)c1C |  |  | 49 | 19 |
| N#Cc1c(C(F)(F)F)cc(-c2cccs2)nc1SCc1ccc(C(=O)O)cc1 | 1.9 | 0.7 |  |  |
| Cn1c(=O)[nH]c(=O)c2c1nc(S)n2CC(O)COc1ccc2ccccc2c1 (stereo not drawn) | 0.3 | 8.7 |  |  |
| COc1ccc(-c2csc(-n3[nH]c(C)c(C(c4ccccc4)C(C#N)C(N)=O)c3=O)n2)cc1 (stereo not drawn) |  |  | 9 | 42 |
| COc1ccccc1Nc1nc(-c2sc(N)nc2C)cs1 | 2.5 | 3 |  |  |
| O=C(CSc1nnc(-c2ccccc2O)o1)NNC(=O)Cc1ccccc1 |  |  | 22 | 1 |
| O=C(O)c1ccc(-c2ccc(-c3nc(O)c4c5c(sc4n3)CCCC5)o2)cc1 | 3.7 | 3.1 |  |  |
| Cc1cc(C)nc(NS(=O)(=O)c2ccc(NC(=O)c3cccc(NC(=O)C(F)(F)F)c3)cc2)n1 |  |  | 15 | 44 |
| NS(=O)(=O)c1ccc(-c2ccc(/C=C3/C(=O)NN(c4cccc(C(F)(F)F)c4)C3=O)o2)cc1 |  |  | 45 | 66 |
| Cc1oc(C(=O)N2CCCC2C(=O)O)cc1COc1ccc2oc3ccccc3c2c1 (stereo not drawn) |  |  | 42 | 48 |
| COc1cc(C2CC(=O)NC(SCC(=O)Nc3ccc(Br)cc3)=C2C#N)ccc1O (stereo not drawn) |  |  | 25 | 23 |
| Cc1cccc(NCc2n[nH]c(SCC(=O)Nc3cc([N+](=O)[O-])ccc3Cl)n2)c1 |  |  | 22 | 53 |
| COc1cc(/C=C2\SC(=S)N(CC(=O)O)C2=O)ccc1OC(=O)c1cccs1 |  |  | 59 | 46 |
| N#Cc1c(/N=C/c2ccc(-c3ccc(C(=O)O)cc3)o2)sc2c1CCCC2 | 2.5 | 2.1 |  |  |
| COc1ccc(-c2nc(NC(=O)CSCC(=O)O)sc2C)cc1 |  |  | 21 | 51 |
| CCOc1ccc2nc(SCC(=O)NCc3ccc(C(=O)O)cc3)sc2c1 |  |  | 12 | 39 |
| N#Cc1c(N)nc(SCC(=O)Nc2ccc(F)cc2)c(C#N)c1-c1ccccc1 | 5.7 | 1.7 |  |  |
